Results as given in patent US20250257361A1, “COMPOSITIONS AND METHODS FOR TREATING LIVER DISEASES WITH SIRNAS TARGETING SMYD2” (The Board of Regents of The University of Texas System, priority 2022, published 2025).

Columns and labels:
human SMYD2 = experiment: SMYD2 luciferase reporter assay (dual Renilla/Firefly) for siRNA knockdown in Cos7 cells; type: cell-based; conditions: psiCheck2 human Smyd2 luciferase reporter and siRNA co-transfected, 24 h, triplicates (Table 2; text says 48 hours)
WD NASH model = tested on: WD NASH model
Method: FIG. 6A. Experimental design for pre-clinical testing of AZ505 in the WD NASH model. WD was given at 8 weeks of age for a total of 2 months. AZ505 treatment started one day after WD was initiated. Vehicle (2.5% DMSO in saline) or AZ505 (10 mg/kg in saline containing 2.5% DMSO) was given to mice intraperitoneally 3 times per week. FIG. 6B. Body weight of vehicle or AZ505 treated mice before and after 2 months of WD (n=15 and 14 mice). FIGS. 6C-6D. Liver weight and liver/body weight ratios of vehicle or AZ505 treated mice after 2 months of WD (n=15 and 14). FIG. 6E. Representative liver pictures and H&E staining of liver sections for vehicle or AZ505 treated mice after 2 months of WD. FIGS. 6F-6G. Liver function analysis using plasma ALT and AST (n=15 and 14). FIGS. 6H-6I. Liver triglyceride and cholesterol analysis (n=15 and 14). FIGS. 6J-6K. Plasma triglyceride and cholesterol analysis (n=15 and 14).
In order to determine if chemical SMYD2 inhibition could serve as orthogonal validation of the genetic findings, and to investigate the therapeutic potential of SMYD2 blockade in fatty liver disease, AZ505 was used. […] WD was fed to WT mice at 8 weeks of age, followed by treatment with vehicle control or AZ505 with a dose of 10 mg/kg (intraperitoneal injection) three times per week (FIG. 6A).
All mice were handled in accordance with the guidelines of the Institutional Animal Care and Use Committee at UT Southwestern. All experiments were done in an age and sex controlled fashion unless otherwise noted. C57BL/6 strain background mice were used for all the experiments. LSL-tdTomato (strain #007914) and Rosa-rtTA; TetO-Cas9 mice (#029415) were obtained from The Jackson Laboratory. Mice homozygous for both Rosa-rtTA and TetO-Cas9 were used to ensure a high Cas9 expression level in the liver. Western Diet (WD) used for NASH modeling is described in (Tsuchida et al., 2018). It is composed of high fat solid food (ENVIGO #TD.120528) and high sugar water containing 23.1 g/L d-fructose (Sigma-Aldrich #F0127) and 18.9 g/L d-glucose (Sigma-Aldrich #G8270).
Liver pieces were fixed in buffered formalin (Fisherbrand #245-685) for 24 h with gentle shaking at 4° C. and then transferred to 70% EtOH for another 24 h with shaking at 4° C. Paraffin embedding, liver sectioning (4 μm thickness), and H&E staining were performed at the UT Southwestern Tissue Management Shared Resource Core. For IHC staining, the following primary antibodies were used: Pten (CST #9559, IHC 1:200); Ki67 (Abcam #AB15580, IHC 1:200). IHC). IHC was performed as previously described (Zhu et al., 2010). TUNEL staining was performed on paraffin embedded liver sections using In Situ Cell Death Detection Kit, Fluorescein (Roche #C755B40) according to the manufacturer's protocol. QuPath software (https://qupath.github.io/) was used to quantify Ki67 and TUNEL staining.
The supernatant after centrifugation (plasma) was analyzed for AST, ALT, cholesterol, and triglyceride using VITROS MicroSlide Technology at the UT Southwestern Metabolic Phenotyping Core. 100-150 mg of liver per sample was weighted and used for lipid extraction and quantification at the UT Southwestern Metabolic Phenotyping Core.

SMYD2 = SMYD2 (Homo sapiens, UniProt Q9NRG4); conditions: cited from earlier work
[1] = AZ505 10 mg/kg i.p. 3 times per week vs. vehicle, 2 months WD

Chain of SMYD2 (Q9NRG4 whole entry, species assumed): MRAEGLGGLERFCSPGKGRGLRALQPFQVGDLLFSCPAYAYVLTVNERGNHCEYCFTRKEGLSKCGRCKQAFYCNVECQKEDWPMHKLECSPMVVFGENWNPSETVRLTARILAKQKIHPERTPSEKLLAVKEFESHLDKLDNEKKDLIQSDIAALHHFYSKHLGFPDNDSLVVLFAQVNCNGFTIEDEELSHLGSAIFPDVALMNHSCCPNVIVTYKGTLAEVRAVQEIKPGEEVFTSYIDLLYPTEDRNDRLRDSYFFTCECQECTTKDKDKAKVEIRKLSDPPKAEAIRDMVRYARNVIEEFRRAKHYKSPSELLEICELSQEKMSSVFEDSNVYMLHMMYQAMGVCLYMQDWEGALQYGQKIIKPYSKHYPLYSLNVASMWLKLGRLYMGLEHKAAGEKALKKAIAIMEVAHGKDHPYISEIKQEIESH

SMYD2 1078: siRNA to human SMYD2; sense CCUGCAAUAUGGACAGAAAUU (SEQ 62), antisense UUUCUGUCCAUAUUGCAGGUU (SEQ 119) (listed as RNA, chemistry not given here)
% mRNA remaining (compared to Ctrl siRNA) (human SMYD2): 107.5%

SMYD2 706-728: siRNA to human SMYD2; sense GGUUUUUACCAGCUAUAUUGA (SEQ 70), antisense AAUAUAGCUGGUAAAAACCUC (SEQ 127) (listed as RNA, chemistry not given here)
% mRNA remaining (compared to Ctrl siRNA) (human SMYD2): 53.2%

SMYD2 750-772: siRNA to human SMYD2; sense GAAAUGACCGGUUAAGAGAUU (SEQ 78), antisense UCUCUUAACCGGUCAUUUCUA (SEQ 135) (listed as RNA, chemistry not given here)
% mRNA remaining (compared to Ctrl siRNA) (human SMYD2): 26.5%

SMYD2 310: siRNA to human SMYD2; sense GGAGACUGUAAGACUAACAUU (SEQ 63), antisense UGUUAGUCUUACAGUCUCCUU (SEQ 120) (listed as RNA, chemistry not given here)
% mRNA remaining (compared to Ctrl siRNA) (human SMYD2): 24.0%

SMYD2 1252-1274: siRNA to human SMYD2; sense CAAAGAUCAUCCAUAUAUUUC (SEQ 69), antisense AAUAUAUGGAUGAUCUUUGCC (SEQ 126) (listed as RNA, chemistry not given here)
% mRNA remaining (compared to Ctrl siRNA) (human SMYD2): 13.1%

SMYDS 588: siRNA to human SMYD2; sense CAGCGAUAUUUCCUGAUGUUU (SEQ 67), antisense ACAUCAGGAAAUAUCGCUGUU (SEQ 124) (listed as RNA, chemistry not given here)
% mRNA remaining (compared to Ctrl siRNA) (human SMYD2): 26.3%

SMYD2 1276-1298: siRNA to human SMYD2; sense GAUCAAACAGGAAAUUGAAAG (SEQ 72), antisense UUCAAUUUCCUGUUUGAUCUC (SEQ 129) (listed as RNA, chemistry not given here)
% mRNA remaining (compared to Ctrl siRNA) (human SMYD2): 26.6%

SMYD2 757: siRNA to human SMYD2; sense CCGGUUAAGAGAUUCUUAUUU (SEQ 59), antisense AUAAGAAUCUCUUAACCGGUU (SEQ 116) (listed as RNA, chemistry not given here)
% mRNA remaining (compared to Ctrl siRNA) (human SMYD2): 82.3%

SMYD2 736: siRNA to human SMYD2; sense CCCAACGGAAGAUAGAAAUUU (SEQ 61), antisense AUUUCUAUCUUCCGUUGGGUU (SEQ 118) (listed as RNA, chemistry not given here)
% mRNA remaining (compared to Ctrl siRNA) (human SMYD2): 115.1%

SMYD2 493: siRNA to human SMYD2; sense CGGAUUCCCUGACAAUGAUUU (SEQ 66), antisense AUCAUUGUCAGGGAAUCCGUU (SEQ 123) (listed as RNA, chemistry not given here)
% mRNA remaining (compared to Ctrl siRNA) (human SMYD2): 20.0%

SMYD2 1077: siRNA to human SMYD2; sense CCCUGCAAUAUGGACAGAAUU (SEQ 65), antisense UUCUGUCCAUAUUGCAGGGUU (SEQ 122) (listed as RNA, chemistry not given here)
% mRNA remaining (compared to Ctrl siRNA) (human SMYD2): 72.7%

SMYD2 767-789: siRNA to human SMYD2; sense GAUUCUUAUUUCUUUACCUGU (SEQ 76), antisense AGGUAAAGAAAUAAGAAUCUC (SEQ 133) (listed as RNA, chemistry not given here)
% mRNA remaining (compared to Ctrl siRNA) (human SMYD2): 46.4%

SMYD2 759-781: siRNA to human SMYD2; sense GGUUAAGAGAUUCUUAUUUCU (SEQ 71), antisense AAAUAAGAAUCUCUUAACCGG (SEQ 128) (listed as RNA, chemistry not given here)
% mRNA remaining (compared to Ctrl siRNA) (human SMYD2): 37.7%

SMYD2 1249: siRNA to human SMYD2; sense CGGCAAAGAUCAUCCAUAUUU (SEQ 60), antisense AUAUGGAUGAUCUUUGCCGUU (SEQ 117) (listed as RNA, chemistry not given here)
% mRNA remaining (compared to Ctrl siRNA) (human SMYD2): 110.9%

SMYD2 1251-1273: siRNA to human SMYD2; sense GCAAAGAUCAUCCAUAUAUUU (SEQ 77), antisense AUAUAUGGAUGAUCUUUGCCG (SEQ 134) (listed as RNA, chemistry not given here)
% mRNA remaining (compared to Ctrl siRNA) (human SMYD2): 30.0%

SMYD2 758-780: siRNA to human SMYD2; sense CGGUUAAGAGAUUCUUAUUUC (SEQ 75), antisense AAUAAGAAUCUCUUAACCGGU (SEQ 132) (listed as RNA, chemistry not given here)
% mRNA remaining (compared to Ctrl siRNA) (human SMYD2): 38.8%

SMYD2 675: siRNA to human SMYD2; sense GAGCUGUACAGGAAAUCAAUU (SEQ 64), antisense UUGAUUUCCUGUACAGCUCUU (SEQ 121) (listed as RNA, chemistry not given here)
% mRNA remaining (compared to Ctrl siRNA) (human SMYD2): 121.4%

O=C1COc2c(CCNCCN(C(=O)CCNCCc3ccc(Cl)c(Cl)c3)C3CCCCC3)ccc(O)c2N1 [AZ505]
body weight (WD NASH model; [1]): significant reductions | liver appearance (WD NASH model; [1]): Smaller, less pale livers | liver cholesterol (WD NASH model; [1]): modest increase | liver triglycerides (WD NASH model; [1]): significant decrease | liver weight (WD NASH model; [1]): significant reductions | liver/body weight ratios (WD NASH model; [1]): significant reductions | plasma lipids (triglyceride and cholesterol) (WD NASH model; [1]): modest increase | steatosis (liver histology, H&E) (WD NASH model; [1]): dramatically decreased steatosis | transaminitis (plasma ALT and AST) (WD NASH model; [1]): improved | fatty liver disease (overall effect) (WD NASH model; WD NASH model, AZ505 10 mg/kg i.p. 3 times per week, 2 months): ameliorates | tolerability of dose (WD NASH model; mouse, in vivo): well tolerated | IC50 (SMYD2; SMYD2): 0.12 µM | selectivity for SMYD2 (SMYD2): > 600 fold

SMYD2 416-438: siRNA to human SMYD2; sense GAUAAGUUAGACAAUGAGAAG (SEQ 73), antisense UCUCAUUGUCUAACUUAUCCA (SEQ 130) (listed as RNA, chemistry not given here)
% mRNA remaining (compared to Ctrl siRNA) (human SMYD2): 28.5%

SMYD2 894: siRNA to human SMYD2; sense CACGCAACGUCAUUGAAGAUU (SEQ 68), antisense UCUUCAAUGACGUUGCGUGUU (SEQ 125) (listed as RNA, chemistry not given here)
% mRNA remaining (compared to Ctrl siRNA) (human SMYD2): 18.3%

SMYD2 1082-1104: siRNA to human SMYD2; sense CAAUAUGGACAGAAAAUCAUU (SEQ 74), antisense UGAUUUUCUGUCCAUAUUGCA (SEQ 131)
% mRNA remaining (compared to Ctrl siRNA) (human SMYD2): 35.2%
